Measured values as given in ChEMBL document CHEMBL1133322, “The synthesis and vasopressin (AVP) antagonist activity of a novel series of N-aroyl-2,4,5,6-tetrahydropyrazolo[3,4-d]thieno[3,2-b]azepines” (Bioorg Med Chem Lett, 2000).

Tests used:
Rattus norvegicus [1] = assay: Urine volume was measured after 4 hours following oral compound dose of 10 mg/kg in a volume of 10 mL/kg (20% dimethylsulfoxide in 2.5% preboiled starch) in rats deprived with food or water; format: functional
Rattus norvegicus [2] = assay: Urine volume was measured after 4 hours following oral compound dose of 10 mg/kg in rats deprived of food or water (water-loaded 30 mL/kg + 0.4 ug/kg of AVP intraperitoneal); format: functional
Vasopressin V2 receptor [3] = biological target: T1, Vasopressin V2 receptor (Rattus norvegicus, UniProt Q00788); assay: Binding affinity to rat V2 receptor
T1 sequence (Q00788 whole entry): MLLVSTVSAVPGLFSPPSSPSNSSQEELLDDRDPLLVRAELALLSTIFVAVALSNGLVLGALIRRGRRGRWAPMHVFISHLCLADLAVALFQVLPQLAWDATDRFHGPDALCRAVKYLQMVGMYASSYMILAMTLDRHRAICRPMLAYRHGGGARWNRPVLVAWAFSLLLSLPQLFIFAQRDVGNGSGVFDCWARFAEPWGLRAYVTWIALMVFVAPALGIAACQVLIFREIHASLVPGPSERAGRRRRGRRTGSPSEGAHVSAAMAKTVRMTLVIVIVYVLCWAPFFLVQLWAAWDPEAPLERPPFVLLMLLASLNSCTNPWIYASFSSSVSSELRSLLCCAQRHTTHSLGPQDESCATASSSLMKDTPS

Vasopressin V1a receptor [4] = biological target: T2, Vasopressin V1a receptor (Homo sapiens, UniProt P37288); assay: In vitro binding affinity to human V1a receptor
Target sequence in this assay (P37288 whole entry): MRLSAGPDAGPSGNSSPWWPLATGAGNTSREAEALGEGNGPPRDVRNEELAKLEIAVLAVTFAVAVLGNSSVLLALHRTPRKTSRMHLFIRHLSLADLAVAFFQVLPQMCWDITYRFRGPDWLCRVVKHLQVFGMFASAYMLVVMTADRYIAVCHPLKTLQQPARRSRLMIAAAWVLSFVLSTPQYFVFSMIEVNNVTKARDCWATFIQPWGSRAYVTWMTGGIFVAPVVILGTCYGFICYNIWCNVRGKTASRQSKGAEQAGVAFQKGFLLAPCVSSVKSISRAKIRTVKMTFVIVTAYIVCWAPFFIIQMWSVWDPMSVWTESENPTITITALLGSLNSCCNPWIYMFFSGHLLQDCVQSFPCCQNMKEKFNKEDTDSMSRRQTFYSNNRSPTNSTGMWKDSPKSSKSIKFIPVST

[5] = biological target: Vasopressin V1a receptor (Rattus norvegicus) (UniProt P30560); assay: In vitro inhibition against rat V1a receptor at 10 uM
Chain of Vasopressin V1a receptor (Rattus norvegicus) (P30560 whole entry, looked up): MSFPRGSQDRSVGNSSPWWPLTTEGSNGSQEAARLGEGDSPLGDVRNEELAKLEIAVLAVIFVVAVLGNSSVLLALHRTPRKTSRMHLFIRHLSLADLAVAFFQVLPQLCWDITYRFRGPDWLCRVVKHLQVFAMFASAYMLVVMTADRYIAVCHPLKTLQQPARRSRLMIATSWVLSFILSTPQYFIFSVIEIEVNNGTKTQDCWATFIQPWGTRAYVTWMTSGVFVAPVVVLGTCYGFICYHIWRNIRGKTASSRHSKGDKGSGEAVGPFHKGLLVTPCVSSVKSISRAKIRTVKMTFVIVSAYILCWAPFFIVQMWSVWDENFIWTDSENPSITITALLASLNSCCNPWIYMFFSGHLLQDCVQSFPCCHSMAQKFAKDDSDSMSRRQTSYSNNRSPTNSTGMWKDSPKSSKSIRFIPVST

Vasopressin V1a receptor [6] = biological target: T2, Vasopressin V1a receptor; assay: In vitro inhibition against human V1a receptor at 10 uM
Target sequence in this assay (P37288 whole entry, looked up): as the sequence (P37288 whole entry) above

Vasopressin V2 receptor [7] = biological target: T3, Vasopressin V2 receptor (Homo sapiens, UniProt P30518); assay: In vitro inhibition against human V2 receptor at 10 uM
T3 sequence (P30518 whole entry): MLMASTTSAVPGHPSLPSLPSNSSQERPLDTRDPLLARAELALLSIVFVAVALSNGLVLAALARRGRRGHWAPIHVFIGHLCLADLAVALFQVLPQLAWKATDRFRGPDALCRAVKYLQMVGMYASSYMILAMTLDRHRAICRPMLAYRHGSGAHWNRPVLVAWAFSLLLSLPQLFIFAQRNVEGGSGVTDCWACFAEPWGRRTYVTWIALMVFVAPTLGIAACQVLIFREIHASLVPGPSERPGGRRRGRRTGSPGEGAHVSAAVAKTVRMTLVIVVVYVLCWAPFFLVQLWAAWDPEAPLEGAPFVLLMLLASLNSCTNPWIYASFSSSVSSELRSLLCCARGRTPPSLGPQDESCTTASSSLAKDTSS

Vasopressin V2 receptor [8] = biological target: T3, Vasopressin V2 receptor; assay: In vitro binding affinity to human V2 receptor
Vasopressin V1a receptor [9] = biological target: Vasopressin V1a receptor (Rattus norvegicus, UniProt P30560); assay: In vitro binding affinity for rat V1a receptor
Chain of Vasopressin V1a receptor (Rattus norvegicus, UniProt P30560) (P30560 whole entry): as the sequence (P30560 whole entry, looked up) above

Rattus norvegicus [10] = assay: Urine volume was measured after 4 hours following oral compound dose of 3 mg/kg in rats deprived with food or water; format: functional
Vasopressin V2 receptor [11] = biological target: T1, Vasopressin V2 receptor; assay: In vitro for its binding affinity to rat V2 receptor

| SMILES | Urine volume (Rattus norvegicus [1]) [ml 4hr-1] | Urine volume (Rattus norvegicus [2]) [ml 4hr-1] | IC50 (Vasopressin V1a receptor [4]) [nM] | IC50 (Vasopressin V2 receptor [8]) [nM] | further results |
| --- | --- | --- | --- | --- | --- |
| O=C(Nc1ccc(C(=O)N2Cc3cccn3Cc3ccccc32)cc1)c1ccccc1-c1ccccc1 | 21 |  |  |  |  |
| Cn1cc2c(n1)-c1sccc1N(C(=O)c1ccc(NC(=O)C3CCCCC3)cc1)CC2 |  | 9 |  |  |  |
| O=C(Nc1ccc(C(=O)N2CCCCc3sccc32)c(Cl)c1)c1ccccc1-c1ccccc1 | 19 |  | 86 |  | IC50 (Vasopressin V2 receptor [3]): 1.2 nM |
| O=C(Nc1ccc(C(=O)N2CCc3c[nH]nc3-c3sccc32)c(Cl)c1)c1cc(Cl)ccc1F | 12 |  |  |  | inhibition [5]: 18% |
| O=C(Nc1ccc(C(=O)N2CCCCc3sc(Cl)cc32)c(Cl)c1)c1ccccc1-c1ccccc1 | 22 |  |  |  |  |
| Cc1ccccc1C(=O)Nc1ccc(C(=O)N2CCc3cn(C(=O)c4ccccc4C)nc3-c3sccc32)cc1 |  | 14 |  |  | inhibition (Vasopressin V1a receptor [6]): 88%; inhibition (Vasopressin V2 receptor [7]): 88% |
| O=C(Nc1ccc(C(=O)N2CCc3c[nH]nc3-c3sccc32)cc1)c1ccc(F)cc1Cl | 15 |  |  | 140 |  |
| Cn1cc2c(n1)-c1sccc1N(C(=O)c1ccc(NC(=O)c3ccc(Cl)cc3Cl)cc1)CC2 |  | 6 | 4100 | 150 | IC50 (Vasopressin V2 receptor [3]): 38 nM; IC50 (Vasopressin V1a receptor [9]): 2100 nM |
| Cc1ccc(F)cc1C(=O)Nc1ccc(C(=O)N2CCCCc3sccc32)c(Cl)c1 |  | 4 |  |  |  |
| Cc1ccc(F)cc1C(=O)Nc1ccc(C(=O)N2Cc3cccn3Cc3ccccc32)c(Cl)c1 [LIXIVAPTAN] | 22 |  |  |  | Urine volume (Rattus norvegicus [10]): 20 ml 4hr-1 |
| Cc1ccccc1C(=O)Nc1ccc(C(=O)N2CCc3cn(C)nc3-c3sccc32)cc1 | 3 |  | 1740 | 220 | IC50 (Vasopressin V2 receptor [3]): 24 nM; IC50 (Vasopressin V1a receptor [9]): 2010 nM |
| O=C(Nc1ccc(C(=O)N2CCc3c[nH]nc3-c3sccc32)c(Cl)c1)c1ccccc1-c1ccccc1 | 27 |  |  | 1.7 | Urine volume (Rattus norvegicus [10]): 22 ml 4hr-1 |
| O=C(Nc1ccc(C(=O)N2CCCCc3sc(Cl)cc32)cc1)c1ccccc1-c1ccccc1 | 20 |  | 82 |  | IC50 (Vasopressin V2 receptor [3]): 3.2 nM |
| Cc1ccccc1C(=O)Nc1ccc(C(=O)N2CCc3c[nH]nc3-c3sccc32)cc1 |  | 21 | 240 | 130 | IC50 (Vasopressin V1a receptor [9]): 2100 nM; IC50 (Vasopressin V2 receptor [11]): 120 nM |
| O=C(Nc1ccc(C(=O)N2Cc3cccn3Cc3ccccc32)cc1)c1ccc(Cl)cc1Cl |  | 16 |  |  |  |
| O=C(Nc1ccc(C(=O)N2Cc3cccn3Cc3ccccc32)c(Cl)c1)c1ccccc1-c1ccccc1 | 27 |  | 370 | 2.7 | Urine volume (Rattus norvegicus [10]): 20 ml 4hr-1 |
| Cc1ccc(F)cc1C(=O)Nc1ccc(C(=O)N2CCc3c[nH]nc3-c3sccc32)c(Cl)c1 | 7 |  |  |  | IC50 (Vasopressin V1a receptor [9]): 12400 nM; inhibition (Vasopressin V1a receptor [6]): 69%; IC50 (Vasopressin V2 receptor [11]): 6 nM |
| O=C(Nc1ccc(C(=O)N2CCCCc3sc(Cl)cc32)cc1)c1ccc(Cl)cc1Cl |  | 8 |  |  |  |
| Cc1ccc(F)cc1C(=O)Nc1ccc(C(=O)N2CCc3c[nH]nc3-c3sccc32)cc1 |  | 18 |  | 71 | IC50 (Vasopressin V2 receptor [11]): 69 nM |
